US9233095B2, “Small molecule RNase inhibitors and methods of use” (University of Rochester, priority 2011, dated 2016)
Converted amounts (≈) assume the structure as drawn. Where two headings read alike, the source gives them in different places.

Legend:
S. aureus strain Smith = experiment: acute lethal model of infection; format: in vivo, CD-1 mice; conditions: RNPA1000 128 mg/kg s.c., over the course of study
E. coli = experiment: CLSI broth microdilution MIC; format: cell-based, Escherichia coli
Excerpt: (§1) In some examples, compounds can be further assayed using the Mueller Hinton (MH) broth antibacterial assay as specified by the Clinical and Laboratory Standards Institute MIC broth microdilution protocol (see Methods for Dilution Antimicrobial Susceptibility Tests for Bacteria That Grow Aerobically; Approved Standard, In The Clinical and Laboratory Standards Institute (CLSI, formerly NCCLS), 7th ed., January 2006, 26 (2), M7-A7; see also Performance Standards for Antimicrobial Susceptibility Testing; Eighteenth Informational Supplement, In The Clinical and Laboratory Standards Institute (CLSI, formerly NCCLS), January 2008, 28 (1), M100-S18).
(§2) With the exception of RN4220-derivatives, in vitro activities of RNPA1000 against bacteria were determined by the broth microdilution method according to the Clinical and Laboratory Standards Institute (CLSI) guidelines using cation adjusted Mueller-Hinton broth or MH broth supplemented with 5% lysed horse blood (for testing Streptotococcus spp.). Microtiter plates containing serial dilutions of RNPA1000 (0, 4, 8, 16, 32, 64, and 128 μg/ml) were inoculated with 10^5 colony forming units (CFU)/ml and incubated for 18 hr at 37° C. […] The MIC value for each S. aureus strain was determined to be the median score of replicate measurements (n=5). Wells containing concentrations of RNPA1000≧MIC were plated for minimal bactericidal measurement. Where possible, experiments with VRSA strains were performed in a laminar flow hood to minimize potential for equipment contamination. For RN4220 cells containing plasmid vector (pCN51), RnpA overproducing plasmid (pRNPA-S) or RnpA underproducing plasmid (pRNPA-A.S.) in vitro antimicrobial activity of RNPA1000 was performed by the microdilution method as described above, except that cells were grown in Tryptic Soy Broth medium supplemented with 2.5 μM CdCl2 and 0, 1, 2, 4, 8, 16, 32, 64, or 128 μg/ml RNPA1000. Time-kill assays were also performed to monitor the antimicrobial properties of RNPA1000 for S. aureus strain UAMS-1 in the absence and presence of 0.25, 0.5, 2, and 4 times the strain's MIC for oxacillin (1 μg/ml), rifampicin (0.5 μg/ml), vancomycin (2 μg/ml), or daptomycin (1 μg/ml). The indicated amount of RNPA1000 and/or commercial antibiotic were added to mid-exponential phase (2×10^8 cfu/ml) S. aureus strain UAMS-1 cells and incubated at 37° C. Aliquots were removed at 0, 2, 4, 8, and 24 hr post-antimicrobial challenge, serial diluted, and plated to enumerate resulting cfu/ml. All time-kill assays were repeated at least 3 times.

[1] = tested on: S. aureus cellular mRNA degradation; experiment: GeneChip mRNA turnover of RNPA1000 challenged cells; format: cell-based; conditions: 0.5× MIC, 30 min treatment, versus mock treated cells
Description: For half life determinations, S. aureus strain UAMS-1, RN4220 (pCN51; plasmid containing CdCl2 inducible promoter), RN4220 (pRNPA; pCN51 capable of producing full length rnpA mRNA), or RN4220 (pRNPA-A.S.; pCN51 capable of producing rnpA antisense RNA) were grown to mid-exponential or stationary phase, transcription was arrested by the addition of rifampin (200 μg/ml), and aliquots were removed at 0-, 2.5-, 5-, 15- and 30-min post-transcriptional arrest for strain UAMS-1. To conserve reagents, aliquots were removed at 0 and 10 min post-transcriptional arrest for RN4220 derivatives. Plating ensured cultures had not developed rifampin resistance. Each strain and/or growth phase was assessed twice, except for RN4220 pRNPA-A.S. cells which were assessed four times. RNA was isolated from each aliquot, labeled, hybridized to an S. aureus GeneChip (Affymetrix; Santa Clara, Calif.), duplicates were averaged, and the mRNA half-lives of all mRNA species were determined, as previously described (see Anderson et al., J Bacteriol, 188: 6739-6756 (2006); Roberts et al., J Bacteriol, 188: 2593-2603 (2006)). […] Transcript synthesis was then arrested and the transcript titers of mRNA species were measured at 0- and 5-min post-transcriptional arrest (see Anderson et al., J Bacteriol, 188: 6739-6756 (2006); Roberts et al., J Bacteriol, 188: 2593-2603 (2006)). […]

S. aureus strain UAMS-1 = experiment: time-kill assay; format: cell-based
Description: as §2

A. baumannii = experiment: CLSI broth microdilution MIC; format: cell-based, Acinetobacter baumannii
Excerpt: as §1, §2

E. faecium (VRE) = experiment: CLSI broth microdilution MIC; format: cell-based, Enterococcus faecium; conditions: for MIC: Enterococcus faecium
Excerpt: as §1, §2

E. faecium = experiment: CLSI broth microdilution MIC; format: cell-based, Enterococcus faecium; conditions: for MIC: Enterococcus faecium
Excerpt: as §1, §2

[2] = combination time-kill, data not shown

Cc1cc(/C=C(/C#N)C(=O)Nc2cccc(Br)c2)c(C)n1-c1ccc(C(=O)O)cc1 [RNPA1000]
survival (S. aureus strain Smith): 30%
effect on growth (E. coli): did not affect
MIC (E. coli; E. coli Isolate 2): >64 µg/mL
MIC (E. coli; E. coli Isolate 3): >64 µg/mL
MIC (E. coli; E. coli Isolate 4): >64 µg/mL
MIC (E. coli; E. coli Isolate 5): >64 µg/mL
MIC (E. coli; Escherichia coli, E. coli Isolate 1, read-out: MIC): > 64 µg/mL
mRNA degradation rate of S. aureus cells [1]: reduced the mRNA degradation rate
mode of antimicrobial action in time kill assays (S. aureus strain UAMS-1; 0.25-4 times the MIC, 0-24 hr): bacteriostatic
effect on the potency of oxacillin (S. aureus strain UAMS-1; combination time-kill, 0.5 times the MIC of each): mildly increase the potency
effect on the antimicrobial activity of daptomycin (S. aureus strain UAMS-1; [2]): does not affect the antimicrobial activities
effect on the antimicrobial activity of rifampicin (S. aureus strain UAMS-1; [2]): does not affect the antimicrobial activities
effect on the antimicrobial activity of vancomycin (S. aureus strain UAMS-1; [2]): does not affect the antimicrobial activities
effect of efflux inhibitor reserpine on RNPA1000 susceptibility (A. baumannii): no effect
effect on growth (A. baumannii): did not affect
MIC (A. baumannii; A. baumannii Isolate 2): >64 µg/mL
MIC (A. baumannii; A. baumannii Isolate 3): >64 µg/mL
MIC (A. baumannii; A. baumannii Isolate 4): >64 µg/mL
MIC (A. baumannii; A. baumannii Isolate 5): >64 µg/mL
MIC (A. baumannii; A. baumannii Isolate 5 + reserpine): >64 µg/mL
MIC (A. baumannii; Acinetobacter baumannii): > 64 µg/mL
antimicrobial activity in words (E. faecium (VRE)): mild activity
MIC (E. faecium (VRE); E. faecium (VRE) Isolate 1): 64 µg/mL (≈ 138 µM)
MIC (E. faecium (VRE); E. faecium (VRE) Isolate 2): 64 µg/mL (≈ 138 µM)
MIC (E. faecium (VRE); E. faecium (VRE) Isolate 3): 32 µg/mL (≈ 68.9 µM)
MIC (E. faecium (VRE); E. faecium (VRE) Isolate 4): 64 µg/mL (≈ 138 µM)
MIC (E. faecium (VRE); E. faecium (VRE) Isolate 5): 32 µg/mL (≈ 68.9 µM)
antimicrobial activity in words (E. faecium): mild activity
MIC (E. faecium; E. faecium Isolate 1, read-out: MIC): 64 µg/mL (≈ 138 µM)
MIC (E. faecium; E. faecium Isolate 2, read-out: MIC): 64 µg/mL (≈ 138 µM)
MIC (E. faecium; E. faecium Isolate 3, read-out: MIC): 64 µg/mL (≈ 138 µM)
MIC (E. faecium; E. faecium Isolate 4, read-out: MIC): 64 µg/mL (≈ 138 µM)
MIC (E. faecium; E. faecium Isolate 5 + reserpine (efflux pump inhibitor)): 32 µg/mL
MIC (E. faecium; E. faecium Isolate 5, read-out: MIC): 64 µg/mL (≈ 138 µM)
